Assay results reported in patent publication US11160788B2, “Caspase-1 inhibition and uses thereof for prevention and treatment of neurological conditions” (priority 2016, dated 2021).
Entries after “also recorded” stand apart in the source; their conditions may differ.

Columns and labels:
[1] = biological target: T1, mouse Casp11 (Mus musculus, UniProt P70343); experiment: Selectivity against mouse Casp11; assay type: biochemical; conditions: recombinant caspases
T1 sequence (P70343 81-266 limits assumed): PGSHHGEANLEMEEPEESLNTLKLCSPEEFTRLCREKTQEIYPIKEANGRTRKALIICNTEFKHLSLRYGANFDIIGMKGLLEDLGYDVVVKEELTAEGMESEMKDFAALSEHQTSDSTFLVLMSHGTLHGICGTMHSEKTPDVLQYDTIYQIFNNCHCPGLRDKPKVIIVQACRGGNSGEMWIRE
T1 sequence (P70343 286-373 limits assumed): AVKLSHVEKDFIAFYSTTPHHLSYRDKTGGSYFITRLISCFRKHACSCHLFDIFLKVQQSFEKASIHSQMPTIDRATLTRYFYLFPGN
Description: FIG. 14: Selectivity and blood brain permeability of VX-765 and VRT-043198. (a-b) IC50 of VX-765 (a) and VRT-043198 (b) against human Casp1-10. (c-d) IC50 of VX-765 (c) and VRT-043198 (d) against mouse Casp1 and Casp11. (e) Blood brain barrier permeability and presence of VX-765 and VRT-043198 in 3 wild type and 4 J20 mice brain cortex and hippocampus and in plasma. Ratios of brain levels to plasma levels are calculated.

[2] = test system: J20 mice; experiment: Iba1 microglia immunohistochemistry, treated symptomatic J20 mice brains; assay type: in vivo, mouse
Excerpt: FIG. 10: VX-765 reverses neuroinflammation in J20 mice. (a) Iba-1 positive microglia immunohistographs in the stratum lacunosum molecular area of the hippocampus and S1 of cortex (Scale bar=50 μm). (b) Stereological quantification of Iba-1^+ microglia for WT+Vehicle (n=6), J20+Vehicle (n=5), and J20+VX-765 (n=4) in the hippocampus from the pyramidal cell layer to the stratum lacunosum molecular layer (F(2,11)=58, p<0.0001) and cortex (F(2,11)=39.95, p<0.0001, ANOVA, Dunnett's post-hoc compared to J20+Vehicle, ***p<0.001). (c) Average percentage distribution of morphological microglial subtypes 1 (black (lowermost) bar), 2 (light grey bar), 3 (dark grey bar) and 4 (black (uppermost) bar). (d) II1-β pg/mg levels measured by ELISA in pre-treated J20 at 5 months of age and in treated WT and J20 8 months of age. (e) Astroglial GFAP^+ immunohistographs.
To assess AD-like pathology, immunohistochemical analyses were performed to detect amyloid deposition (anti-AβF25276)^5,6, microglial (Iba1) activation^7, astrogliosis (GFAP), synaptophysin protein levels on coronal brain sections. Multiplex MSD ELISA was used to assess Aβ levels and 38,40, and 42 subtypes, and II-1β brain levels. RT-PCR was used to assess levels of human APP^Sw/Ind.

[3] = test system: J20 mice; experiment: APP, Casp1, Casp6, IDE and neprilysin expression, treated symptomatic J20 mice; assay type: in vivo, mouse; conditions: RT-PCR, J20 brains, preliminary
Excerpt: FIG. 5: Western blot against the C-terminus (C11) and Aβ (6E10) regions of APP in TREATMENT mice groups before washout.
FIG. 11: VX-765 prevents the progression of Aβ in J20 mice. (a) Aβ immunohistographs of the stratum lacunosum molecular layer of the hippocampus and S1 cortex of pre-treated 5-month old J20 (baseline) and 8-month old vehicle- or VX-765-treated WT or J20 mice with anti-F2576 antiserum (Scale bar=50 μm). (b) Quantitative analysis comparing Aβ immunostaining density between J20+Vehicle (n=5) and J20+VX-765 (n=4) mice in the hippocampus from the pyramidal cell layer to the stratum lacunosum molecular layer (p=0.0029) and cortex (p=0.0314, unpaired t test). (c) Quantitative analysis comparing RIPA-soluble Aβ42 over total Aβ (Aβ38+Aβ40+Aβ42) levels in pre-treated 5-month old J20, 8-month old vehicle- or VX-765 treated J20 mice hippocampus (F(2,9)=6.614, p=0.0171, ANOVA, Tukey's post-hoc, * p<0.05). No ELISA signal was obtained from WT mice brains. (d) RIPA-soluble total Aβ measured by ELISA in pg/mg brain tissue. (e,f) Formic acid soluble Aβ42 over total Aβ (Aβ38+Aβ40+Aβ42) (e) and total Aβ (f) levels measured by ELISA in pg/mg brain tissue. Student t-test used to assess difference between J20+vehicle and J20+VX-765. (g,h,i) RIPA-soluble and (j,k,l) formic acid soluble Aβ38, Aβ40, and Aβ42 measured by ELISA in pg/mg brain tissue. […]

[4] = test system: serum deprived human primary neurons; experiment: Neuritic beading in serum-deprived human primary neurons; assay type: cell-based
Description: FIG. 13: VX-765 protects CNS primary human neurons (HPN) against APP- or serum deprivation-mediated neuritic beading. (a) MTT assay with increasing dose of VX-765. (b) Fluorescent micrographs showing homogeneous distribution of EGFP in normal neurons and neuritic beading in APP-transfected neurons. (c) Percentage beading in APP-transfected or serum-deprived neurons treated 1 h before and continuously with stressor (Pre-treatment) or 48 h after stressor (post-beading treatment) with 25 or 50 μM VX-765 or with 5 μM Z-YVAD-fmk Casp1 peptide inhibitor. […] (d-e) HPN secreted or cellular Aβ42/total Aβ38+40+42 (d) (F(3,4)=12.73, p=0.0163, ANOVA, Dunnett's post-hoc compared to Serum+DMSO, *p<0.05), and (e) levels of secreted II-1β, IFN-γ, TNF-α, and II-6 from untreated (+S), serum deprived (−S), or serum-deprived human neurons treated with 25 or 50 μM VX-765.
EGFP-labeled human primary neurons were either APP^WT transfected or serum deprived. Two treatment strategies were employed to determine VX-765's effects on neuronal degeneration: our Pre-Treatment strategy looked at whether VX-765 could block neuronal degeneration when administered 1 hr prior to APP^WT transfection or serum deprivation, while our Reversal Treatment strategy looked at whether VX-765 could reverse degenerative effects when administered 48 hrs after APP^WT transfection or serum deprivation. Neurons displaying beaded morphology were counted with live imaging and measured as a percentage of the total number of eGFP+ neurons from 24-72 hrs after treatment. The irreversible caspase-1 inhibitor YVAD-fmk was used as positive control in our experiments. Results were obtained from averaging counts for at least 100 eGFP+ neurons per experiment in three independent neuron preparations.

**Q.** Which results are given for `CCO[C@@H]1OC(=O)C[C@@H]1NC(=O)[C@@H]1CCCN1C(=O)[C@@H](NC(=O)c1ccc(N)c(Cl)c1)C(C)(C)C` [VX-765, (S)-1-((S)-2-{[1-(4-amino-3-chloro-phenyl)-methanoyl]-amino}-3,3-dimethyl-butanoyl)-pyrrolidine-2-carboxylic acid ((2R,3S)-2-ethoxy-5-oxo-tetrahydro-furan-3-yl)-amide]?
**A.** inhibition of mouse Casp1 compared to mouse Casp11 [1]: strongly inhibited compared to inflammatory mouse Casp11; Iba1-positive microglia in hippocampus CA1 ([2]; 50 mg/kg, 12 injections, 8 month old J20): normalized; also recorded: reduced to WT levels; number of Iba1+ microglia, pyramidal cell layer to stratum lacunosum molecular layer of CA1 ([2]; 50 mg/kg, after Treatment 3, stereological quantification): returned to normal; microglial activation measured morphologically ([2]; hippocampus and cortex, vs vehicle-treated J20): more resting, and less activated, microglia; Casp1 and Casp6 mRNA [3]: reduction; neuritic beading ([4]; pre-treatment 1 h before serum deprivation): particularly effective in reducing neuritic beading at 72 hrs; also recorded: protected against, albeit less strongly; neuritic beading ([4]; reversal treatment 48 hrs after serum deprivation): neither YVAD nor VX-765 were able to reverse neuritic beading
